Blank lines part the entries; values can stand above or below the molecule they belong to.
Test: solvent given as SMILES
[1] = in O=P(c1ccccc1)(c1ccccc1)c1ccccc1Oc1ccccc1P(=O)(c1ccccc1)c1ccccc1

Compound: c1ccc(-c2nc(-c3ccccc3)nc(-c3cc(-n4c5ccccc5c5ncccc54)c(-n4c5ccccc5c5ccccc54)c(-n4c5ccccc5c5ncccc54)c3)n2)cc1
fluorescence lifetime [1]: 6 ns

Compound: N#Cc1cc(N2c3ccccc3Oc3ccccc32)c(N2c3ccccc3Oc3ccccc32)cc1C#N
fluorescence lifetime (in c1ccc2c(c1)c1ccccc1n2-c1ccc(-c2ccc(-n3c4ccccc4c4ccccc43)cc2)cc1): 20 ns

Compound: CCOc1cc2c(cc1/C=C/C(=C(C#N)C#N)c1ccccc1)c1ccccc1n2CC
fluorescence lifetime (in C1CCOC1): 5.66 ns
fluorescence lifetime (in CC#N): 5.72 ns
fluorescence lifetime (in CCO): 5.24 ns
fluorescence lifetime (in CCOC(C)=O): 5.19 ns
fluorescence lifetime (in CN(C)C=O): 5.41 ns
fluorescence lifetime (in CS(C)=O): 7.08 ns
fluorescence lifetime (in Cc1ccccc1): 6.76 ns
fluorescence lifetime (in ClC(Cl)Cl): 7.78 ns
fluorescence lifetime (in ClCCl): 5.13 ns

Compound: C(=C\c1cccc2ccccc12)/c1ccc(-c2nnc(-c3ccc(-c4cc5ccccc5s4)cc3)o2)cc1
fluorescence lifetime (in Cc1ccccc1): 0.97 ns
fluorescence lifetime (in ClC(Cl)Cl): 1.15 ns

Compound: F[B-]1(F)Oc2ccccc2-c2cc(-n3c4ccccc4c4ccccc43)cc[n+]21
fluorescence lifetime [1]: 6.7 ns

Compound: CCOC(=O)c1ccc2c(c1)[nH]c1c3ccc(C(=O)OCC)cc3[se]c21
fluorescence lifetime (in CCCO): 0.15 ns

Compound: O=C([O-])c1ccc(C(=O)[O-])c(C2=c3cc4c5c(c3Oc3c2cc2c6c3CCCN6CCC2)CCC[N+]=5CCC4)c1
fluorescence lifetime (in CCO): 5.21 ns
fluorescence lifetime (in O): 4.79 ns

Compound: CC(C)(C)c1ccc2c(c1)c1cc(C(C)(C)C)ccc1n2-c1ccc(C#Cc2ccccc2)cc1
fluorescence lifetime (in CC#N): 4.75 ns
fluorescence lifetime (in CCCCC): 2.07 ns
fluorescence lifetime (in CO): 4.99 ns
fluorescence lifetime (in Cc1ccccc1): 1.77 ns
fluorescence lifetime (in ClC(Cl)Cl): 2.39 ns
fluorescence lifetime (in ClCCl): 3.91 ns

Compound: Cn1cccc1-c1ccc(C#N)cc1
fluorescence lifetime (in CC#N): 5.4 ns
fluorescence lifetime (in CCCCCC): 1.8 ns
fluorescence lifetime (in CCOCC): 5.21 ns

Compound: CCCCCCCCCCCCn1nnc(-c2ccc(C#Cc3ccc(C#Cc4ccc(-c5nnn(CCCCCCCCCCCC)n5)cc4)c4nc5c6ccccc6c6ccccc6c5nc34)cc2)n1
fluorescence lifetime (in C1CCOC1): 2.54 ns
fluorescence lifetime (in Cc1ccccc1): 3.55 ns
fluorescence lifetime (in ClCCl): 4.82 ns

Compound: O=S(=O)(c1ccc(N2c3ccccc3Oc3ccccc32)cc1)c1ccc(N2c3ccccc3Oc3ccccc32)cc1
fluorescence lifetime (in C1COCCO1): 19 ns
fluorescence lifetime (in CC(C)=O): 4.3 ns
fluorescence lifetime (in Cc1ccccc1): 15 ns
fluorescence lifetime (in ClC(Cl)Cl): 16 ns
fluorescence lifetime (in c1cc(-n2c3ccccc3c3ccccc32)cc(-n2c3ccccc3c3ccccc32)c1): 14 ns

Compound: O=C(O)c1ccc2cc3cc(C(=O)O)ccc3cc2c1
fluorescence lifetime (in C1CCOC1): 12.3 ns
fluorescence lifetime (in CN(C)C=O): 12.5 ns

Compound: CCOC(=O)c1ccccc1-c1c2ccc(=[N+](CC)CC)cc-2oc2c1c(=O)oc1cc(N(CC)CC)ccc12
fluorescence lifetime (in CCO): 2.12 ns
fluorescence lifetime (in ClC(Cl)Cl): 4.31 ns
fluorescence lifetime (in O): 0.27 ns

Compound: CCCCCCCCN1c2ccc(C#Cc3ccc(C(F)(F)F)cc3)cc2Sc2cc(C=O)ccc21
fluorescence lifetime (in C1CCOC1): 8.1 ns
fluorescence lifetime (in CC#N): 6.52 ns
fluorescence lifetime (in CCCCCC): 6.45 ns
fluorescence lifetime (in CO): 4.04 ns
fluorescence lifetime (in CS(C)=O): 7.77 ns
fluorescence lifetime (in Cc1ccccc1): 7.43 ns
fluorescence lifetime (in ClC(Cl)Cl): 7.03 ns

Compound: COc1ccc2cc([C@H](C)C(=O)O)ccc2c1
fluorescence lifetime (in C1CCOC1): 11 ns
fluorescence lifetime (in CC#N): 9.96 ns
fluorescence lifetime (in CC(C)O): 10.8 ns
fluorescence lifetime (in CCCCO): 11.4 ns
fluorescence lifetime (in CCO): 10.4 ns
fluorescence lifetime (in CO): 8.48 ns
fluorescence lifetime (in ClCCl): 6.93 ns
fluorescence lifetime (in O): 9.6 ns

Compound: C=CCOc1ccc(-c2nc3cc(C(NC(=O)OC(C)(C)C)C(=O)OC)ccc3o2)cc1 (stereo not given)
fluorescence lifetime (in CC1CCCCC1): 1.05 ns
fluorescence lifetime (in CC#N): 1.14 ns
fluorescence lifetime (in CO): 1.21 ns

Compound: c1ccc2c(c1)OP1(=NP(Oc3ccc4ccc5cccc6ccc3c4c56)(Oc3ccc4ccc5cccc6ccc3c4c56)=NP(Oc3ccc4ccc5cccc6ccc3c4c56)(Oc3ccc4ccc5cccc6ccc3c4c56)=N1)Oc1ccccc1-2
fluorescence lifetime (in ClCCl): 1.23 ns

Compound: COc1cc(OC)c2cc(-c3ccccc3CC#N)c(=O)oc2c1
fluorescence lifetime (in ClC(Cl)Cl): 2.8 ns

Compound: CNC1=C2C=CC=[N+]2[B-](F)(F)n2cccc21
fluorescence lifetime (in C1CCCCC1): 4.67 ns
fluorescence lifetime (in CC(C)=O): 0.726 ns
fluorescence lifetime (in CCO): 0.774 ns
fluorescence lifetime (in CCOC(C)=O): 2.04 ns
fluorescence lifetime (in CO): 0.523 ns
fluorescence lifetime (in OCC(F)(F)F): 1.4 ns

Compound: c1ccc(-c2ccc(-c3nc(-n4c5ccccc5c5ccc6c7ccccc7n(-c7ccccc7)c6c54)nc(-n4c5ccccc5c5ccc6c7ccccc7n(-c7ccccc7)c6c54)n3)cc2)cc1
fluorescence lifetime (in Cc1ccccc1): 8.7 ns

Compound: CCN(CC)c1ccc2cc(/C(Cl)=C/C=C/C(=C(C#N)C#N)c3ccc4c(c3)c3ccccc3n4CC)c(=O)oc2c1
fluorescence lifetime (in CC(C)=O): 0.47 ns
fluorescence lifetime (in CCOC(C)=O): 1.14 ns
fluorescence lifetime (in CN(C)C=O): 0.86 ns
fluorescence lifetime (in CS(C)=O): 0.36 ns
fluorescence lifetime (in Cc1ccccc1): 1.39 ns
fluorescence lifetime (in ClCCl): 1.82 ns

Compound: CC1(C)c2ccccc2N(c2c(F)cc(-c3nnc(-c4ccccc4)o3)cc2F)c2ccccc21
fluorescence lifetime (in Cc1ccccc1): 8.8 ns

Compound: CC1(C)C(/C=C/C2=C(Cl)C(=C/C=C3/N(CCCCS(=O)(=O)[O-])c4ccc5ccccc5c4C3(C)C)/CCC2)=[N+](CCCCS(=O)(=O)[O-])c2ccc3ccccc3c21
fluorescence lifetime (in CC(C)=O): 0.43 ns
fluorescence lifetime (in CCO): 0.38 ns
fluorescence lifetime (in CO): 0.25 ns
fluorescence lifetime (in CS(C)=O): 0.5 ns
fluorescence lifetime (in ClC(Cl)Cl): 0.73 ns
fluorescence lifetime (in ClCCl): 0.59 ns
fluorescence lifetime (in O): 0.13 ns

Compound: COc1ccc2c(c1)CCC1=C(C#Cc3ccc(Cl)cc3)O[B-](F)(F)[O+]=C12
fluorescence lifetime (in ClCCl): 2.53 ns

Compound: Nc1ccc2ccc(O)cc2c1
fluorescence lifetime (in O): 7.69 ns

Compound: COc1c2ccccc2c(OC)c2c1c1cc(C)ccc1n2C
fluorescence lifetime (in C1CCCCC1): 24.6 ns
fluorescence lifetime (in CC#N): 31.1 ns
fluorescence lifetime (in CO): 29.8 ns
fluorescence lifetime (in ClCCl): 27.6 ns

Compound: COc1c2ccccc2c(OC)c2c1c1ccc(C(F)(F)F)cc1n2C
fluorescence lifetime (in C1CCCCC1): 26 ns
fluorescence lifetime (in CC#N): 31.2 ns
fluorescence lifetime (in CO): 28.6 ns
fluorescence lifetime (in ClCCl): 25.8 ns

Compound: CCCCC(CC)CN1C(=O)c2cc(Oc3ccc(C(C)(C)C)cc3)c3c4c(Cl)cc5c6c(cc(Cl)c(c7c(Oc8ccc(C(C)(C)C)cc8)cc(c2c37)C1=O)c64)C(=O)N(c1c(C(C)C)cccc1C(C)C)C5=O (stereo not given)
fluorescence lifetime (in Cc1ccccc1): 6.73 ns

Compound: CCOC(=O)c1ccc2c(c1)[nH]c1c3ccc(C(=O)OCC)cc3sc21
fluorescence lifetime (in CCCO): 2.6 ns

Compound: COC(=O)c1cc(=O)n(C)c2cc(-c3ccc4c(c3)OCO4)sc12
fluorescence lifetime (in ClCCl): 1.72 ns

Compound: CC1(CCCCC(=O)NCCCCCCO)C(/C=C/C=C/C=C2/N(CCCS(=O)(=O)[O-])c3ccc(S(=O)(=O)[O-])cc3C2(C)C)=[N+](CCCS(=O)(=O)[O-])c2ccc(S(=O)(=O)[O-])cc21 (stereo not given)
fluorescence lifetime (in O): 1 ns

Results, then the molecule that gave them:

fluorescence lifetime (in ClC(Cl)Cl): 3.3 ns
Compound: N#Cc1ccc(-c2cc(-c3ccc(N4CCCC4)cc3)nc(-c3ccccc3)n2)cc1

fluorescence lifetime (in ClC(Cl)Cl): 4.1 ns
Compound: Cc1ccc(/C2=c3\cc/c(o3)=C(\c3ccc(C)cc3)c3ccc([nH]3)-c3ccc4n3[B-](F)(F)[N+]3=C(C=CC3=C4c3ccco3)c3ccc2[nH]3)cc1

fluorescence lifetime (in C1CCCCC1): 0.184 ns
fluorescence lifetime (in CC#N): 0.06 ns
fluorescence lifetime (in CCO): 0.07 ns
fluorescence lifetime (in CCOC(C)=O): 0.082 ns
fluorescence lifetime (in CO): 0.063 ns
fluorescence lifetime (in OCC(F)(F)F): 0.069 ns
Compound: Cc1ccc(C2=C3C=C(I)C=[N+]3[B-](F)(F)n3cccc32)cc1

fluorescence lifetime (in C1CCCCC1): 0.67 ns
Compound: COC(=O)c1noc(-c2ccccc2)c1Cl

fluorescence lifetime (in ClC(Cl)Cl): 5.4 ns
Compound: Cc1ccc(-c2oc3cccc4c5c(-c6ccc(C)cc6)/c(=N/S(=O)(=O)C(F)(F)F)oc6cccc(c2c34)c65)cc1

fluorescence lifetime (in c1ccccc1): 6 ns
Compound: O=c1oc2c(ccc3ccccc32)nc1-c1ccccc1

fluorescence lifetime (in CC#N): 1.24 ns
Compound: Cn1c(-c2ccc(-c3nc(-c4ccccc4)c(-c4ccccc4)n3C)s2)nc(-c2ccccc2)c1-c1ccccc1

fluorescence lifetime (in C1CCCCC1): 0.2 ns
fluorescence lifetime (in CO): 0.16 ns
Compound: Clc1ccc(/C=C/c2nc3ccccc3o2)cc1

fluorescence lifetime (in CC#N): 4.1 ns
fluorescence lifetime (in CCO): 3.99 ns
fluorescence lifetime (in CN(C)C=O): 3.74 ns
fluorescence lifetime (in O): 4.2 ns
Compound: COC(=O)c1ccccc1-c1c2ccc(=[NH2+])cc-2oc2cc(N)ccc12

fluorescence lifetime (in CCO): 2.1 ns
Compound: Cc1cc(C)c(-c2nnc(-c3ccc(-n4c5ccccc5c5ccccc54)cc3)o2)c(C)c1

fluorescence lifetime (in ClC(Cl)Cl): 1.29 ns
Compound: CSc1ccc(C#Cc2ccc(C#Cc3ccc(C#Cc4ccccc4C#N)cc3C#N)cc2C#N)cc1

fluorescence lifetime (in C1CCCCC1): 7.8 ns
Compound: CC[Si](CC)(CC)Oc1cccc(O[Si](CC)(CC)CC)c1-c1c2ccccc2c(-c2c(O[Si](CC)(CC)CC)cccc2O[Si](CC)(CC)CC)c2ccccc12

fluorescence lifetime (in O): 14.2 ns
Compound: O=C(O)CCCCCn1c2ccccc2c(=O)c2ccccc21

fluorescence lifetime (in ClC(Cl)Cl): 2.4 ns
Compound: COc1ccc2cc(-c3ccccc3CC#N)c(=O)oc2c1

fluorescence lifetime (in CC#N): 1.8 ns
fluorescence lifetime (in CCOC(C)=O): 1.4 ns
Compound: [C-]#[N+]c1ccc(-c2ccc(NC)cc2)cc1

fluorescence lifetime (in CC#N): 1.44 ns
fluorescence lifetime (in CCCCCC): 0.45 ns
fluorescence lifetime (in CO): 0.36 ns
fluorescence lifetime (in CS(C)=O): 0.67 ns
fluorescence lifetime (in ClCCl): 0.25 ns
Compound: COc1ccc(-c2nc3c(c4c2-c2ccccc2CC4)-c2ccccc2CC3)cc1

fluorescence lifetime (in CC#N): 2.75 ns
Compound: COc1ccc2cc(/C=C/c3ccccc3)c(=O)oc2c1

fluorescence lifetime (in C1CCOC1): 2.82 ns
fluorescence lifetime (in CC(C)O): 1.8 ns
fluorescence lifetime (in CO): 1.5 ns
fluorescence lifetime (in CS(C)=O): 2.2 ns
fluorescence lifetime (in ClC(Cl)Cl): 0.96 ns
fluorescence lifetime (in ClCCl): 3.82 ns
Compound: COc1ccccc1-c1c(-c2ccccc2O)nc(-c2ccc(C(F)(F)F)cc2)n1-c1ccc(C)cc1

fluorescence lifetime (in C1CCCCC1): 0.8 ns
fluorescence lifetime (in C1CCOC1): 1 ns
Compound: c1ccc(-c2ccc(-c3ccc(-c4ccccc4)cc3)cc2)cc1

fluorescence lifetime (in C1CCOC1): 0.97 ns
fluorescence lifetime (in ClCCl): 1.01 ns
Compound: CCC(CC)COC1=CC2=C3c4cc(OCC(CC)CC)c(-c5ccccc5)n4[B-](F)(F)[n+]4c3n(c3cc(C(C)(C)C)ccc34)[B-](F)(F)[N+]2=C1c1ccccc1

fluorescence lifetime (in C1CCOC1): 7 ns
Compound: CN(C)c1ccc(C(=Cc2ccc(C=O)cc2)c2ccc(N(C)C)cc2)cc1

fluorescence lifetime (in O): 17.3 ns
Compound: C[NH+](C)c1c2ccccc2cc2ccccc12

fluorescence lifetime (in ClCCl): 3.51 ns
Compound: CCN(CC)c1ccc2c(c1)oc(=O)c1c(C)nc3c(c(-c4ccccc4)nn3-c3ccccc3)c12

fluorescence lifetime (in C1CCCCC1): 2.2 ns
Compound: CC(=O)c1ccc(-c2nc3ccc(N(C)C)cc3s2)cc1

fluorescence lifetime (in C1CCOC1): 2.8 ns
Compound: FC(F)(F)C(F)(F)C(F)(F)C1=NC2=C(Oc3ccccc3)C=C3c4cc(Oc5ccccc5)c5nc(C(F)(F)C(F)(F)C(F)(F)F)nc6c(Oc7ccccc7)cc(c4c56)=C4C=C(Oc5ccccc5)C(=N1)C2C34 (stereo not given)

Source: the Deep4Chem optical property database
